The subject of one data set is p53 Y220C mutant. In words: HTRF assay: compounds promoting the binding of p53 Y220C mutant with DNA. It is filed as biochemical. The following applies: His-tagged p53 Y220C (94-312), biotin-labeled DNA. How it is done: Homogeneous time-resolved fluorescence (HTRF) assay was used to measure the reactivation effect of compounds on the p53 Y220C mutant. The recombinant His-tagged p53 Y220C (94-312) used for HTRF assays was expressed in E. coli and purified to the purity of 90% through Ni-NTA column. The biotin-labeled DNA used for HTRF assays was synthesized by Pharmaron Inc, with the specific sequence of 5'-[…]-3' .
The binding of recombinant His-tagged p53 Y220C protein and biotin-labeled DNA was measured using fluorescence resonance energy transfer (FRET). For FRET assays, binding between p53 mutants and DNA sequences was measured by detecting the fluorescence of the interaction between an anti-His antibody (Cisbio, 61HI2KLA) conjugated to Eu and d2-conjugated streptavidin (Cisbio, 610SADLF) bound to a biotin-labeled DNA molecule. Compounds were prepared into 2 mM stock solutions and serially diluted into 10 concentrations at a 1:3 ratio in DMSO. Each 200-fold working concentration compound was sequentially diluted to 4-fold working concentration. 4 µL of compound solution was transferred line by line to a 384-well assay plate using Echo, containing 2 replicates per column. 4 µL of p53 solution was added to the assay plate. 4 µL of biotin DNA solution was added to the assay plate, and then 4 µL of assay solution (His-Eu antibody and streptavidin-d2) was added to each well of the assay plate. The assay plate was incubated overnight and protected from light. Fluorescence was read on BMG (BMG LRBTECH).
The ratio of each well was calculated (ratio_665 nm/615 nm-ratio_background). The activity % was calculated as follows: C = (Ave_Ac−Ave_Ba)/(Ave_Dc_Ave_Bd) [formula] R data = (A−Ave_Ba−C*D)/(D−Ave_Bd)*(Ave_Dc−Ave_Bd) [formula] Activity % = R data/Ave_VC*100. [formula] • A: fluorescence intensity of the sample at 665 nm; • D: fluorescence intensity of the sample at 615 nm; • Ba: fluorescence intensity of the plate background at 665 nm; • Bd: fluorescence intensity of the plate background at 615 nm; • Dc: fluorescence intensity of HIS-Eu background at 615 nm; • Ac: fluorescence intensity of streptavidin-d2 background at 665 nm; • VC: DMSO treatment group.
SC150 was calculated using Graphpad 8.0 to fit the logarithm of activity% and compound concentration to a nonlinear regression (dose response-variable slope). Table 1: Activity of compounds promoting the binding of p53 Y220C mutant with DNA
A general note: TR-FRET usually uses a lanthanide donor and a delayed reading to cut background.

Data set [1] deals with CYP3A4/5. The following applies: human, microsomes, 10 min, 10 µM.
Method: (§1) Experimental purpose: To test the inhibitory effect of compounds on CYP isoenzymes at a single concentration. • 2. Experimental instrument and reagents:
(§2) 8.71 g of K2HPO4 was dissolved in 950 mL of water. The pH was adjusted to 7.4 with HCl solution. The mixture was adjusted to a final volume of 1000 mL with water. The buffer was filtered through a 0.45 µm filter. The buffer was stored in a refrigerator at 4°C for future use. Terfenadine/tolbutamide (1 mg/mL each) stock solutions were prepared with DMSO. The above stock solution was diluted with acetonitrile to produce a quenching solution containing 5/10 ng/mL (terfenadine/tolbutamide).
(§3) Liver microsomes were thawed in a 37°C water bath prior to use. Liver microsome working solution (final concentration of 0.5 mg/mL) was prepared. 5 mM NADPH working solution was prepared with phosphate buffered saline. The above stock solution was prepared into a 2 mM working solution with DMSO.
(§4) 238.5 µL of liver microsome working solution was added to a 1.1 mL tube. 1.5 µL of test compound/control working solution/DMSO was added and mixed well by pipetting several times. The mixture was pre-incubated in water bath with shaking at 37°C for 5 minutes. After the pre-incubation, 60 µL of NADPH working solution was added and mixed well by pipetting several times. The mixture was incubated in water bath with shaking at 37°C for 10 minutes. Immediately after incubation, 500 µL of quenching solution was added and vortexed for 1 minute. All samples were centrifuged at 4,000 rpm for 15 minutes at 4°C. 300 µL of the above supernatants were aliquoted for further LC-MS/MS analysis.
(§5) Inhibition rate (% inhibition) is calculated using metabolite formation of the test compound or the control compound compared to the matrix control.
Data set [2] relates to CYP3A4/5. In words: Inhibition of CYP isoenzymes at a single concentration, liver microsomes. Particulars: final compound concentration 10 µM; substrate Midazolam; human liver microsomes.
Method: as §1, §2, §3, §4, §5
The subject of another data set is CYP3A4/5 enzymes. Nature of the data set: Multi-concentration inhibitory activity curve of CYP3A4/5 enzymes, liver microsomes. The data set is classed as in vitro ADME. Particulars: substrate Midazolam; human liver microsomes; 10 min. Background: Liver microsomes are a subcellular fraction often used to study metabolism.

Molecules are shown by their SMILES. Like-named read-outs stand apart in the source and are kept apart here.

Method for CYP3A4/5 enzymes: Experimental purpose: To determine the concentration inhibitory activity curve of compounds on CYP3A4/5 enzymes. • 2.
as §2
Liver microsomes were thawed in a 37°C water bath prior to use. Liver microsome working solution (final system concentration of 0.5 mg/mL) was prepared. 5 mM NADPH working solution was prepared with phosphate buffered saline. The above stock solution was prepared into a 2 mM working solution with DMSO. The above stock solution was diluted with acetonitrile (4-fold dilution, 6 non-zero concentrations).
238.5 µL of liver microsome working solution was added to a 1.1 mL tube. 1.5 µL of test compound/control working solution/DMSO was added and mixed well by pipetting several times. The mixture was pre-incubated in water bath with shaking at 37°C for 5 minutes. […]
The half-maximal inhibitory concentration (IC50) was calculated using Graph Pad Prism.

`COc1nc(C(=O)NS(C)(=O)=O)ccc1NCC#Cc1cc2c(N[C@@H]3CCN(C)C[C@@H]3F)cccn2c1CC(F)(F)F` [Cpd-1, 5-((3-(8-(((3S,4R)-3-Fluoro-1-methylpiperidin-4-yl)amino)-3-(2,2,2-trifluoroethyl)indolizin-2-yl)prop-2-yn-1-yl)amino)-6-methoxy-N-(methylsulfonyl)picolinamide] came in with an SC150 with p53 Y220C mutant of 1.0 nM. Regarding `COc1nc(C(=O)NS(C)(=O)=O)ncc1NCC#Cc1cc2c(N[C@@H]3CCN(C)C[C@@H]3F)cccn2c1CC(F)(F)F` [Cpd-3, 5-((3-(8-(((3S,4R)-3-Fluoro-1-methylpiperidin-4-yl)amino)-3-(2,2,2-trifluoroethyl)indolizin-2-yl)prop-2-yn-1-yl)amino)-4-methoxy-N-(methylsulfonyl)pyrimidine-2-carboxamide], in the data set on p53 Y220C mutant, the SC150 is reported as 0.74 nM. Regarding `[2H]C([2H])([2H])Oc1nc(C(=O)NS(=O)(=O)C2CC2)ccc1NCC#Cc1cc2c(N[C@@H]3CCN(C)C[C@@H]3F)cccn2c1CC(F)(F)F` [Cpd-4, N-(Cyclopropylsulfonyl)-5-((3-(8-(((3S,4R)-3-fluoro-1-methylpiperidin-4-yl)amino)-3-(2,2,2-trifluoroethyl)indolizin-2-yl)prop-2-yn-1-yl)amino)-6-(methoxy-d3)picolinamide], the SC150 in the data set on p53 Y220C mutant turned out to be 0.35 nM. In the data set on p53 Y220C mutant, `[2H]C([2H])([2H])Oc1nc(C(=O)NS(=O)(=O)CC2CC2)ccc1NCC#Cc1cc2c(N[C@@H]3CCN(C)C[C@@H]3F)cccn2c1CC(F)(F)F` [Cpd-5, N-((Cyclopropylmethyl)sulfonyl)-5-((3-(8-(((3S,4R)-3-fluoro-1-methylpiperidin-4-yl)amino)-3-(2,2,2-trifluoroethyl)indolizin-2-yl)prop-2-yn-1-yl)amino)-6-(methoxy-d3)picolinamide] showed an SC150 of 1.1 nM. For the compound `[2H]C([2H])([2H])Oc1nc(C(=O)NS(=O)(=O)CC(F)(F)F)ccc1NCC#Cc1cc2c(N[C@@H]3CCN(C)C[C@@H]3F)cccn2c1CC(F)(F)F` [Cpd-6, 5-((3-(8-(((3S,4R)-3-Fluoro-1-methylpiperidin-4-yl)amino)-3-(2,2,2-trifluoroethyl)indolizin-2-yl)prop-2-yn-1-yl)amino)-6-(methoxy-d3)-N-((2,2,2-trifluoroethyl)sulfonyl)picolinamide], the SC150 in the data set with p53 Y220C mutant was 1.7 nM. In the data set with p53 Y220C mutant, `COc1nc(C(=O)NS(=O)(=O)C2CC2)ccc1NCC#Cc1cc2c(N[C@@H]3CCN(C)C[C@@H]3F)cccn2c1CC(F)(F)F` [Cpd-7, N-(Cyclopropylsulfonyl)-5-((3-(8-(((3S,4R)-3-fluoro-1-methylpiperidin-4-yl)amino)-3-(2,2,2-trifluoroethyl)indolizin-2-yl)prop-2-yn-1-yl)amino)-6-methoxypicolinamide] came in with an SC150 of 0.64 nM. In the data set on p53 Y220C mutant, `COc1cc(S(C)(=O)=O)ccc1NCC#Cc1nc2c(N[C@@H]3CCN(C)C[C@@H]3F)cccn2c1CC(F)(F)F` [Cpd-B] yielded an SC150 of 15 nM. In addition, in the data set on CYP3A4/5 [1], the “Inhibition rate (%) CYP3A4/5 (Midazolam)” value is 61% and the “Inhibition rate (%) CYP3A4/5 (Testosterone)” value came to 75%.

As a reminder, the IC50 is the midpoint of a concentration-inhibition curve. The low end stands for higher potency, the high end for lower potency. In the case of `CNC(=O)c1ccc(NCC#Cc2cc3c(N[C@@H]4CCN(C)C[C@@H]4F)cccn3c2CC(F)(F)F)c(OC)c1` [Cpd-C, 4-((3-(8-(((3S,4R)-3-Fluoro-1-methylpiperidin-4-yl)amino)-3-(2,2,2-trifluoroethyl)indolizin-2-yl)prop-2-yn-1-yl)amino)-3-methoxy-N-methylbenzamide], the “Inhibition rate (%) CYP3A4/5 (Midazolam)” value in the data set with CYP3A4/5 [2] is given as 79%. For the same compound, in the data set with CYP3A4/5 enzymes, the 50% inhibitory concentration (IC50) was 3.8 µM. For the same compound, in the data set with p53 Y220C mutant, the SC150 amounted to 4.6 nM.
